Measurements taken from patent US20190127381A1, “SUBSTITUTED FUSED PYRIMIDINONE COMPOUNDS” (TORRENT PHARMACEUTICALS LIMITED, priority 2016, published 2019).

Legend:
[1] = biological target: T1, purified recombinant human PI3K enzyme δ (Homo sapiens, UniProt O00329); experiment: Inhibition of PI3-Kinase enzymatic activity (HTRF enzyme assay), δ; format: biochemical; conditions: 1 μM compound; PI3K δ 50 ng/well; PIP2 10 μM; ATP 200 μM; read-out: Percentage inhibition of PI3K activity, δ
T1 construct: purchased Invitrogen, USA
Method: (§1) Inhibition of PI3-Kinase enzymatic activity was determined using a homogeneous time-resolved fluorescence (HTRF) kit from Eurofins. 1 μM of Compounds of present invention were premixed with DMSO. The experiment was initiated by mixing 1.0% DMSO as vehicle/compounds with purified recombinant human PI3K enzyme {δ (50 ng/well); γ (100 ng/well)} (Invitrogen, USA) and substrate (PIP2, 10 μM) in the wells and incubation for 15 min at room temperature. There after ATP was added (δ at 200 μM, and γ at 50 μM) in to the wells containing reaction mixture, followed by re-incubation for 30 minutes at room temperature. Reaction was terminated by addition of a stopping solution and was further incubated for 4 hours at room temperature before reading using Envision multimode reader (Perkin Elmer). Percentage inhibition of PI3K activity was calculated by determining ratio of specific europium 665 nm energy transfer signal to reference 615 nm signals.

[2] = biological target: T2, purified recombinant human PI3K enzyme γ (Homo sapiens, UniProt P48736); experiment: Inhibition of PI3-Kinase enzymatic activity (HTRF enzyme assay), γ; format: biochemical; conditions: 1 μM compound; PI3K γ 100 ng/well; PIP2 10 μM; ATP 50 μM; read-out: Percentage inhibition of PI3K activity, γ
T2 construct: purchased Invitrogen, USA
Method: as §1

T1 sequence (O00329 whole entry): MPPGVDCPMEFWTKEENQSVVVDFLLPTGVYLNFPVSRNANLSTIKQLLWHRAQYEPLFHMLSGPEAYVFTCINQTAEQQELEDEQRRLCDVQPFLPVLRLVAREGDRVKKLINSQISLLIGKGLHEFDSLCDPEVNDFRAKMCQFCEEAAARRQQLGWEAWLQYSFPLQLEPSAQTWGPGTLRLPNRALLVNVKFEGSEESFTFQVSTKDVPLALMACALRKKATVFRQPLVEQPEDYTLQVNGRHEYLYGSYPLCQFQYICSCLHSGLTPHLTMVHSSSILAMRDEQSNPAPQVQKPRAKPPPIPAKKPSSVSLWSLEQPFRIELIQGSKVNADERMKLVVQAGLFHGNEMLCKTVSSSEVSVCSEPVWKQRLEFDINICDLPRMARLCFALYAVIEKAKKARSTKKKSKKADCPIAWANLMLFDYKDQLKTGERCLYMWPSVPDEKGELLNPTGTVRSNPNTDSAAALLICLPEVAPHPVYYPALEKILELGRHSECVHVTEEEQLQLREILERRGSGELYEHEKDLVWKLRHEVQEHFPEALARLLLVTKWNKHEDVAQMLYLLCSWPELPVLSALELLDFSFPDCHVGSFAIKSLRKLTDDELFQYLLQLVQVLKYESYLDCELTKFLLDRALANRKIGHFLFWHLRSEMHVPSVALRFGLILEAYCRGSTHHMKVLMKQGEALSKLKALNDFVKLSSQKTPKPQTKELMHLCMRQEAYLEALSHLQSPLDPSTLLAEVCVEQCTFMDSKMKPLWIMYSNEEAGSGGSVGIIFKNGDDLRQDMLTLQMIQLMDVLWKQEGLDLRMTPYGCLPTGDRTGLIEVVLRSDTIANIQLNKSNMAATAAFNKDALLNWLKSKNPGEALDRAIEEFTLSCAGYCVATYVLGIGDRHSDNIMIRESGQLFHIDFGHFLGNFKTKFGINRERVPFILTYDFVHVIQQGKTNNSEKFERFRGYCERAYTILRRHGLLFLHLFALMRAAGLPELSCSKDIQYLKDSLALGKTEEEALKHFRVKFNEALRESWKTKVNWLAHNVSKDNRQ
T1 sequence (P27986 whole entry partner): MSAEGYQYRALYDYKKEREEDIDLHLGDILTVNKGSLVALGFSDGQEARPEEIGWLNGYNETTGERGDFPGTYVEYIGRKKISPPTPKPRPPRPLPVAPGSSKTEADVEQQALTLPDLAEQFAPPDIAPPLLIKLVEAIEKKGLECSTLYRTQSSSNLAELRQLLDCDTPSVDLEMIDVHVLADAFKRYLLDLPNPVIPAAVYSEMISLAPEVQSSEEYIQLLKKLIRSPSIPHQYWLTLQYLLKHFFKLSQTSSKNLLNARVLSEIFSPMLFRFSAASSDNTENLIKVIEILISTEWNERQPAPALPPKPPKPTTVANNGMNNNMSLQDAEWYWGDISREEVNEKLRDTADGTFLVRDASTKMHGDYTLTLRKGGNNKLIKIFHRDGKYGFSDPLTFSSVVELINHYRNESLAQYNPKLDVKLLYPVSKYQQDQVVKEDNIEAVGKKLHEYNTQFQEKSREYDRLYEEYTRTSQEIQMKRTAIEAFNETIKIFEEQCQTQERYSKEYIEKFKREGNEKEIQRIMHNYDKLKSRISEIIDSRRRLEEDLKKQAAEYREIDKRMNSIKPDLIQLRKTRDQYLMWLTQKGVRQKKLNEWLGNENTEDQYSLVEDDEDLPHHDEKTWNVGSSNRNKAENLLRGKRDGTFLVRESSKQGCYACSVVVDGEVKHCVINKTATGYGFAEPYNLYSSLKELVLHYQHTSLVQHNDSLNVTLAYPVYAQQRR
T2 sequence (P48736 whole entry): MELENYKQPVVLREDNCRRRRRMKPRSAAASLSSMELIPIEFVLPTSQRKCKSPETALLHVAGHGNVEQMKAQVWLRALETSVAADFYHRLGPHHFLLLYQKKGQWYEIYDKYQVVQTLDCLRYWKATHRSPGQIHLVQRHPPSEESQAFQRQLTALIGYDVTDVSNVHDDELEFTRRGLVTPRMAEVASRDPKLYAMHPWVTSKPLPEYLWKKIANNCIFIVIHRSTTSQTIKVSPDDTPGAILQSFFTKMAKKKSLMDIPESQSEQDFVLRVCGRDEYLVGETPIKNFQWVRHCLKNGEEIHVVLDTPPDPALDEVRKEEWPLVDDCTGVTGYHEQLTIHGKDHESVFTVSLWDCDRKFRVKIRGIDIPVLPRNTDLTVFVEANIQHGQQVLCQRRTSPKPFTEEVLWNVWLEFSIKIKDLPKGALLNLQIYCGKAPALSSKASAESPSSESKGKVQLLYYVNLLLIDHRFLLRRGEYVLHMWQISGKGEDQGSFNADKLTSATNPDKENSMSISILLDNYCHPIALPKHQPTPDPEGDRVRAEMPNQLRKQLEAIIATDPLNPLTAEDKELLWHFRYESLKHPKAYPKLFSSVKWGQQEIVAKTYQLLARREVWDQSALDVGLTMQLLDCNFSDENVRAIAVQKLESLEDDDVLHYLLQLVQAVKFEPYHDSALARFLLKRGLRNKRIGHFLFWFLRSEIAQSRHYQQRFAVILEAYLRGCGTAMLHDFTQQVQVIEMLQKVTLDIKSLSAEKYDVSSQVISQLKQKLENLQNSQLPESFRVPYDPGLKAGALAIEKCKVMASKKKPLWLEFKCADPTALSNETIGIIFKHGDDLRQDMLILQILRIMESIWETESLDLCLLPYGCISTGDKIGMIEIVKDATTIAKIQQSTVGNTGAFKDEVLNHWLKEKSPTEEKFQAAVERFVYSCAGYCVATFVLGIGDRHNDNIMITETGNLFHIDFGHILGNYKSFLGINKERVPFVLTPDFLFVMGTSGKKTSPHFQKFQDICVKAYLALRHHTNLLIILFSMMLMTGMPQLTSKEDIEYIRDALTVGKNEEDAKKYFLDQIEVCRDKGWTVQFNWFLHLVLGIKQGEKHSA

Cc1ccc(C)n1-n1c(Cn2nc(-c3ccc(O)c4c3CC(C)(C)O4)c3c(N)ncnc32)nc2cccc(-c3cccn3C)c2c1=O [compound 77, 2-{[4-amino-3-(7-hydroxy-2,2-dimethyl-2,3-dihydro-1-benzofuran-4-yl)-1H-pyrazolo[3,4-d]pyrimidin-1-yl]methyl}-3-(2,5-dimethyl-1H-pyrrol-1-yl)-5-(1-methyl-1H-pyrrol-2-yl)quinazolin-4(3H)-one]
inhibition at 1 µM [1]: 80 to 100% | inhibition at 1 µM [2]: 80 to 100%

Cc1cccc2nc(Cn3nc(-c4ccc(O)c5c4CC(C)(C)O5)c4c(N)ncnc43)n(C3(c4cccs4)CC3)c(=O)c12 [compound 60, 2-{[4-amino-3-(7-hydroxy-2,2-dimethyl-2,3-dihydro-1-benzofuran-4-yl)-1H-pyrazolo[3,4-d]pyrimidin-1-yl]methyl}-5-methyl-3-[1-(thiophen-2-yl)cyclopropyl]quinazolin-4(3H)-one]
inhibition at 1 µM [1]: 80 to 100% | inhibition at 1 µM [2]: 60 to 80%

CC1(C)Cc2c(-c3nn(Cc4nc5cccc(C#CC6CC6)c5c(=O)n4C4(c5ccsc5)CC4)c4ncnc(N)c34)ccc(O)c2O1 [compound 76, 2-{[4-amino-3-(7-hydroxy-2,2-dimethyl-2,3-dihydro-1-benzofuran-4-yl)-1H-pyrazolo[3,4-d]pyrimidin-1-yl]methyl}-5-(cyclopropylethynyl)-3-[1-(thiophen-3-yl)cyclopropyl]quinazolin-4(3H)-one]
inhibition at 1 µM [1]: 80 to 100% | inhibition at 1 µM [2]: 80 to 100%

Nc1ncnc2c1c(-c1ccc(O)c3c1CCC3)nn2Cc1nc2cccc(Cl)c2c(=O)n1-n1cccc1 [compound 1, 2-{[4-amino-3-(7-hydroxy-2,3-dihydro-1H-inden-4-yl)-1H-pyrazolo[3,4-d]pyrimidin-1-yl]methyl}-5-chloro-3-(1H-pyrrol-1-yl)quinazolin-4(3H)-one]
inhibition at 1 µM [1]: 80 to 100% | inhibition at 1 µM [2]: 80 to 100%

C#Cc1cccc2nc(Cn3nc(-c4ccc(O)c5c4CC(C)(C)O5)c4c(N)ncnc43)n(-n3cccc3)c(=O)c12 [compound 20, 2-{[4-amino-3-(7-hydroxy-2,2-dimethyl-2,3-dihydro-1-benzofuran-4-yl)-1H-pyrazolo[3,4-d]pyrimidin-1-yl]methyl}-5-ethynyl-3-(1H-pyrrol-1-yl)quinazolin-4(3H)-one]
inhibition at 1 µM [1]: 80 to 100% | inhibition at 1 µM [2]: 80 to 100%

Cc1ccc(C2(n3c(Cn4nc(-c5ccc(O)c6c5CC(C)(C)O6)c5c(N)ncnc54)nc4cccc(-c5ccnn5C)c4c3=O)CC2)cc1 [compound 40, 2-{[4-amino-3-(7-hydroxy-2,2-dimethyl-2,3-dihydro-1-benzofuran-4-yl)-1H-pyrazolo[3,4-d]pyrimidin-1-yl]methyl}-3-[1-(4-methylphenyl)cyclopropyl]-5-(1-methyl-1H-pyrazol-5-yl)quinazolin-4(3H)-one]
inhibition at 1 µM [1]: 80 to 100% | inhibition at 1 µM [2]: 60 to 80%

Cc1ccc(C)n1-n1c(Cn2nc(-c3ccc(O)c4c3CC(C)(C)O4)c3c(N)ncnc32)nc2cccc(C#Cc3cncn3C)c2c1=O [compound 67, 2-{[4-amino-3-(7-hydroxy-2,2-dimethyl-2,3-dihydro-1-benzofuran-4-yl)-1H-pyrazolo[3,4-d]pyrimidin-1-yl]methyl}-3-(2,5-dimethyl-1H-pyrrol-1-yl)-5-[(1-methyl-1H-imidazol-5-yl)ethynyl]quinazolin-4(3H)-one]
inhibition at 1 µM [1]: 80 to 100% | inhibition at 1 µM [2]: < 20%

Cc1ccc(C2(n3c(Cn4nc(-c5ccc(O)c6c5CC(C)(C)O6)c5c(N)ncnc54)nc4cccc(C#CCO)c4c3=O)CC2)cc1 [compound 37, 2-{[4-amino-3-(7-hydroxy-2,2-dimethyl-2,3-dihydro-1-benzofuran-4-yl)-1H-pyrazolo[3,4-d]pyrimidin-1-yl]methyl}-5-(3-hydroxyprop-1-yn-1-yl)-3-[1-(4-methylphenyl)cyclopropyl]quinazolin-4(3H)-one]
inhibition at 1 µM [1]: 80 to 100% | inhibition at 1 µM [2]: 80 to 100%

CC1(C)Cc2c(-c3nn(Cc4nc5cccc(-c6ccncc6)c5c(=O)n4-n4cccc4)c4ncnc(N)c34)ccc(O)c2O1 [compound 18, 2-{[4-amino-3-(7-hydroxy-2,2-dimethyl-2,3-dihydro-1-benzofuran-4-yl)-1H-pyrazolo[3,4-d]pyrimidin-1-yl]methyl}-5-(pyridin-4-yl)-3-(1H-pyrrol-1-yl)quinazolin-4(3H)-one]
inhibition at 1 µM [1]: 80 to 100% | inhibition at 1 µM [2]: 60 to 80%

Cc1ccc(C)n1-n1c(Cn2nc(-c3ccc(O)c4c3CC(C)(C)O4)c3c(N)ncnc32)nc2cccc(C#CCO)c2c1=O [compound 42, 2-{[4-amino-3-(7-hydroxy-2,2-dimethyl-2,3-dihydro-1-benzofuran-4-yl)-1H-pyrazolo[3,4-d]pyrimidin-1-yl]methyl}-3-(2,5-dimethyl-1H-pyrrol-1-yl)-5-(3-hydroxyprop-1-yn-1-yl)quinazolin-4(3H)-one]
inhibition at 1 µM [1]: 80 to 100% | inhibition at 1 µM [2]: 80 to 100%

Cc1ccc(C)n1-n1c(Cn2nc(-c3ccc(O)c4c3CC(C)(C)O4)c3c(N)ncnc32)nc2cccc(C#CC3CC3)c2c1=O [compound 43, 2-{[4-amino-3-(7-hydroxy-2,2-dimethyl-2,3-dihydro-1-benzofuran-4-yl)-1H-pyrazolo[3,4-d]pyrimidin-1-yl]methyl}-5-(cyclopropylethynyl)-3-(2,5-dimethyl-1H-pyrrol-1-yl)quinazolin-4(3H)-one]
inhibition at 1 µM [1]: 80 to 100% | inhibition at 1 µM [2]: 80 to 100%

Cc1ccc(-c2cccc3nc(Cn4nc(-c5ccc(O)c6c5CC(C)(C)O6)c5c(N)ncnc54)n(C4(c5ccccc5)CC4)c(=O)c23)o1 [compound 17, 2-{[4-amino-3-(7-hydroxy-2,2-dimethyl-2,3-dihydro-1-benzofuran-4-yl)-1H-pyrazolo[3,4-d]pyrimidin-1-yl]methyl}-5-(5-methylfuran-2-yl)-3-(1-phenylcyclopropyl)quinazolin-4(3H)-one]
inhibition at 1 µM [1]: 60 to 80% | inhibition at 1 µM [2]: 60 to 80%

Cc1ccc(C)n1-n1c(Cn2nc(-c3ccc(O)c4c3CC(C)(C)O4)c3c(N)ncnc32)nc2cccc(C#CCN3CCNC(=O)C3)c2c1=O [compound 68, 2-{[4-amino-3-(7-hydroxy-2,2-dimethyl-2,3-dihydro-1-benzofuran-4-yl)-1H-pyrazolo[3,4-d]pyrimidin-1-yl]methyl}-3-(2,5-dimethyl-1H-pyrrol-1-yl)-5-[3-(3-oxopiperazin-1-yl)prop-1-yn-1-yl]quinazolin-4(3H)-one]
inhibition at 1 µM [1]: 80 to 100% | inhibition at 1 µM [2]: 80 to 100%

Cc1cc(C)n(-n2c(Cn3nc(-c4ccc(O)c5c4CC(C)(C)O5)c4c(N)ncnc43)nc3cccc(C)c3c2=O)n1 [compound 11, 2-{[4-amino-3-(7-hydroxy-2,2-dimethyl-2,3-dihydro-1-benzofuran-4-yl)-1H-pyrazolo[3,4-d]pyrimidin-1-yl]methyl}-3-(3,5-dimethyl-1H-pyrazol-1-yl)-5-methylquinazolin-4(3H)-one]
inhibition at 1 µM [1]: 80 to 100% | inhibition at 1 µM [2]: 60 to 80%

CCn1cc(-c2cccc3nc(Cn4nc(-c5ccc(O)c6c5CC(C)(C)O6)c5c(N)ncnc54)n(-n4cccc4)c(=O)c23)cn1 [compound 45, 2-{[4-amino-3-(7-hydroxy-2,2-dimethyl-2,3-dihydro-1-benzofuran-4-yl)-1H-pyrazolo[3,4-d]pyrimidin-1-yl]methyl}-5-(1-ethyl-1H-pyrazol-4-yl)-3-(1H-pyrrol-1-yl)quinazolin-4(3H)-one]
inhibition at 1 µM [1]: 80 to 100% | inhibition at 1 µM [2]: 60 to 80%

Cc1cccc2nc(Cn3nc(-c4ccc(O)c5c4CC(C)(C)O5)c4c(N)ncnc43)n(-n3cccc3)c(=O)c12 [Compound No. 2, 2-{[4-amino-3-(7-hydroxy-2,2-dimethyl-2,3-dihydro-1-benzofuran-4-yl)-1H-pyrazolo[3,4-d]pyrimidin-1-yl]methyl}-5-methyl-3-(1H-pyrrol-1-yl)quinazolin-4(3H)-one]
inhibition at 1 µM [1]: 80 to 100% | inhibition at 1 µM [2]: 80 to 100%

CC1(C)Cc2c(-c3nn(Cc4nc5cccc(C#CCN6CCOCC6)c5c(=O)n4C4(c5ccsc5)CC4)c4ncnc(N)c34)ccc(O)c2O1 [compound 72, 2-{[4-amino-3-(7-hydroxy-2,2-dimethyl-2,3-dihydro-1-benzofuran-4-yl)-1H-pyrazolo[3,4-d]pyrimidin-1-yl]methyl}-5-[3-(morpholin-4-yl)prop-1-yn-1-yl]-3-[1-(thiophen-3-yl)cyclopropyl]quinazolin-4(3H)-one]
inhibition at 1 µM [1]: 80 to 100% | inhibition at 1 µM [2]: 80 to 100%

CC1(C)Cc2c(-c3nn(Cc4nc5cccc(C#CCN6CCNC(=O)C6)c5c(=O)n4-n4cccc4)c4ncnc(N)c34)ccc(O)c2O1 [compound 58, 2-{[4-amino-3-(7-hydroxy-2,2-dimethyl-2,3-dihydro-1-benzofuran-4-yl)-1H-pyrazolo[3,4-d]pyrimidin-1-yl]methyl}-5-[3-(3-oxopiperazin-1-yl)prop-1-yn-1-yl]-3-(1H-pyrrol-1-yl)quinazolin-4(3H)-one]
inhibition at 1 µM [1]: 80 to 100% | inhibition at 1 µM [2]: 80 to 100%

Cn1cccc1-c1cccc2nc(Cn3nc(-c4ccc(O)c5c4CC(C)(C)O5)c4c(N)ncnc43)n(C3(c4ccsc4)CC3)c(=O)c12 [compound 75, 2-{[4-amino-3-(7-hydroxy-2,2-dimethyl-2,3-dihydro-1-benzofuran-4-yl)-1H-pyrazolo[3,4-d]pyrimidin-1-yl]methyl}-5-(1-methyl-1H-pyrrol-2-yl)-3-[1-(thiophen-3-yl)cyclopropyl]quinazolin-4(3H)-one]
inhibition at 1 µM [1]: 80 to 100% | inhibition at 1 µM [2]: 80 to 100%
